Reference: patent US20050136020A1, “Silicone-free long-lasting shine hair care compositions” (priority 2003, published 2005)

What was measured:
[1] = Solubility and visual clarity of PEG/PPG-8/3 Laurate in water and oils; assay type: physicochemical
Protocol: Solubility is the ability of one substance to blend uniformly with another, e.g. solid in liquid or liquid in liquid. Clarity is determined visually. A turbidity meter may be used to measure clarity if the system is not absolutely clear. The solubility of PEG/PPG-8/3 Laurate is up to fifty percent (50%) in water. […] The solubility of PEG/PPG-8/3 Laurate is up to ten percent (10%) in sunflower oil and in castor oil. […] In soybean oil, it is clear at five percent (5%) and slightly hazy at ten percent (10%).

Index of refraction = assay type: physicochemical
Protocol: Preferably, the hair care compositions of the present invention have PEG/PPG-8/3 Laurate. […] Refractive index impacts the overall clarity of the present composition. It is preferred to have an aqueous-based composition with a clear color for aesthetic appeal. The hair care compositions of the present invention have a Shine Index of at least 5 hours, preferably about 8 or more hours, and most preferably up to 18 hours or more, thereby providing for extended life shine. “Shine Index” as used herein is the length of time shine persists on treated hair, as evaluated in the test protocol described in Example 1.

solubility in castor oil ([1]; in castor oil): ≤ 10%
clarity (visual) in soybean oil at 5% ([1]; in soybean oil, five percent (5%)): clear
clarity (visual) in soybean oil at 10% ([1]; in soybean oil, ten percent (10%)): slightly hazy
clarity (visual) in sunflower and castor oil ([1]; in sunflower and castor oil, up to its solubility limit): clear and homogenous
solubility in sunflower oil ([1]; in sunflower oil): ≤ 10%
solubility in water ([1]; in water): ≤ 50%
clarity (visual) in water ([1]; in water, at concentrations up to its solubility limit): clear and homogeneous
index of refraction (Index of refraction): about 1.456
Substance: PEG/PPG-8/3 Laurate
